The values below come from patent US12234221B2, “Pyridine carboxamide compounds for inhibiting NAV1.8” (Lieber Institute, Inc., priority 2018, dated 2025).

Molecules are shown by their SMILES.

T1 sequence (Q9Y5Y9 whole entry): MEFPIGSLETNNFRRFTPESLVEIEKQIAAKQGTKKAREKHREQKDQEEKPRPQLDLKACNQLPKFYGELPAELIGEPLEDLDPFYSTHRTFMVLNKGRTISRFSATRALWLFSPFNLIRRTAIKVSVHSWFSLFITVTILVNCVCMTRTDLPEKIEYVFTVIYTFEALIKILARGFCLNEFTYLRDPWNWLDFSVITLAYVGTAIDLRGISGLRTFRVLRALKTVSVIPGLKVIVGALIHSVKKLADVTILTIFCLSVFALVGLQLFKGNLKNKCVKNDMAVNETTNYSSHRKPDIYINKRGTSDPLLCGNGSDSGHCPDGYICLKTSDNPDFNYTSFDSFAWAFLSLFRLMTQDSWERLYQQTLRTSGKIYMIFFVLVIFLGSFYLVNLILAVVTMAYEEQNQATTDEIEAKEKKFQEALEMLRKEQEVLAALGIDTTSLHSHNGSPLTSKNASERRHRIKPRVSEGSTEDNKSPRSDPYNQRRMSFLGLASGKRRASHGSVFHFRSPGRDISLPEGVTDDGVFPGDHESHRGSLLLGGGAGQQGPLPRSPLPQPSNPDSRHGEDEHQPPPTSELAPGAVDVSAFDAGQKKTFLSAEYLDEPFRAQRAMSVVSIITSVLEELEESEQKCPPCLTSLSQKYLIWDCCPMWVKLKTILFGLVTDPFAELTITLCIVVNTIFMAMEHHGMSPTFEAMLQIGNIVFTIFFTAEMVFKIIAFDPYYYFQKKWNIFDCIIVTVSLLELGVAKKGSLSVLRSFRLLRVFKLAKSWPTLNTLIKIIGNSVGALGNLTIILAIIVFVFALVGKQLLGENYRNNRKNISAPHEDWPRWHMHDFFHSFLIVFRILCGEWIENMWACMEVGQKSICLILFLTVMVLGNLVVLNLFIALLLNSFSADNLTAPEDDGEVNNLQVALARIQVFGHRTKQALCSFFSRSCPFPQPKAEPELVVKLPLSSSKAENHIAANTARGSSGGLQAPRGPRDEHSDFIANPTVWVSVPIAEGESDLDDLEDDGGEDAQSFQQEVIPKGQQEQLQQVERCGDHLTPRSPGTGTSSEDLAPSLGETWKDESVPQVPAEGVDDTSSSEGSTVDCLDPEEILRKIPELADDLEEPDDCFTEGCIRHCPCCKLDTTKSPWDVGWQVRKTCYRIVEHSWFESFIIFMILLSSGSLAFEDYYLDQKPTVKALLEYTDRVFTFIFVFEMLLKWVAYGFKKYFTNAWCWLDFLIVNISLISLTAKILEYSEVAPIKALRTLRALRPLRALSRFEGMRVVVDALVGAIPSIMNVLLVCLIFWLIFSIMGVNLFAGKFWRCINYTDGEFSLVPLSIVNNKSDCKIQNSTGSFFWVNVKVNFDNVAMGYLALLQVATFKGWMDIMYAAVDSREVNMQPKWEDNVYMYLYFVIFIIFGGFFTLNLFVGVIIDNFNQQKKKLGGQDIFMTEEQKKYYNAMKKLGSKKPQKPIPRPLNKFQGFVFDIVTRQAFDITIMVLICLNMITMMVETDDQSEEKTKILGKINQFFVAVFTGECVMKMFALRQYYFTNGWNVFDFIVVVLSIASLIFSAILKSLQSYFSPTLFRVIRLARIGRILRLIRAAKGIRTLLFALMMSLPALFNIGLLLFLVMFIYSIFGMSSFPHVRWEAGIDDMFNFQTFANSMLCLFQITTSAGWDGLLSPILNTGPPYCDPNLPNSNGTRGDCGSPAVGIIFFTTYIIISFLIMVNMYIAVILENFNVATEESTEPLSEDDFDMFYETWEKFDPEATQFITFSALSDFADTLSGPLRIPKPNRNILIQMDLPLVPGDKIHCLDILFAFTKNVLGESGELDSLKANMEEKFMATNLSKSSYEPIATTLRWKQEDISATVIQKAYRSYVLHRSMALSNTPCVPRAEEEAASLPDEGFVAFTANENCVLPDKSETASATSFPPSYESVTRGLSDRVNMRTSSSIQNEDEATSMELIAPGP

The test concerns the target T1, human Nav1.8 (hNav1.8) ion channel (Homo sapiens, UniProt Q9Y5Y9).
T1 construct: expressed in transfected cells; host or cells: HEK293
Briefly: Nav1.8 channel inhibition, estimated IC50 (one or more of: fluorescence inhibition assay, PatchXpress, IonFlux HT automated patch clamp). The format is cell-based. The settings on record: HEK293 cells stably expressing hNav1.8; method used per compound not stated; read-out: Activity range (estimated IC50). In short, it runs like this:
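HEK293 cells stably expressing hNav1.8 with β1/β2 subunits; IC50 from the fluorescence assay and/or automated whole-cell patch clamp (PatchXpress, IonFlux HT). Fluorescence: ANG-2 Na dye, 5 min compound preincubation (0.02–5 μM, 1% DMSO) with 30 μM ouabain, stimulation by 10 μM deltamethrin, peak signal fit logistically. PatchXpress: holding potential reset to Vhalf, inhibition normalized to control/washout currents.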
Regarding `NC(=O)c1cccc(NC(=O)c2cnc(C(F)(F)F)cc2Oc2ccc(OC(F)(F)F)cc2Cl)c1` [Example 81, N-(3-carbamoylphenyl)-4-[2-chloro-4-(trifluoromethoxy)phenoxy]-6-(trifluoromethyl)pyridine-3-carboxamide], the half-inhibitory concentration (IC50) (as a rule, the point on the concentration scale where inhibition reaches its midpoint) is below 500 nM.
In the case of `CN=S(C)(=O)c1cccc(NC(=O)c2cnc(C(F)(F)F)cc2Oc2ccc(OC(F)(F)F)cc2Cl)c1` (stereo not shown) [Example 82, 4-[2-chloro-4-(trifluoromethoxy)phenoxy]-N-[3-(N,S-dimethylsulfonimidoyl)phenyl]-6-(trifluoromethyl)pyridine-3-carboxamide], the IC50 is below 500 nM.
As to `O=C(Nc1ccc[n+]([O-])c1)c1cnc(C(F)(F)F)cc1Oc1ccc(OC(F)(F)F)cc1Cl` [Example 83, 4-[2-chloro-4-(trifluoromethoxy)phenoxy]-N-(1-oxidopyridin-1-ium-3-yl)-6-(trifluoromethyl)pyridine-3-carboxamide], the IC50 was below 500 nM.
Take `COc1cc(F)ccc1Oc1cc(C(F)(F)F)ncc1C(=O)Nc1ccc[n+]([O-])c1` [Example 84, 4-(4-fluoro-2-methoxy-phenoxy)-N-(1-oxidopyridin-1-ium-3-yl)-6-(trifluoromethyl)pyridine-3-carboxamide]: the IC50 was 500 to 1000 nM.
For `Cc1cc(F)ccc1Oc1cc(C(F)(F)F)ncc1C(=O)Nc1ccc[n+]([O-])c1` [Example 85, 4-(4-fluoro-2-methyl-phenoxy)-N-(1-oxidopyridin-1-ium-3-yl)-6-(trifluoromethyl)pyridine-3-carboxamide], the IC50 was 500 to 1000 nM.
On to `O=C(Nc1ccc[n+]([O-])c1)c1cnc(C(F)(F)F)cc1Oc1ccc(OC(F)F)cc1` [Example 86, 4-[4-(difluoromethoxy)phenoxy]-N-(1-oxidopyridin-1-ium-3-yl)-6-(trifluoromethyl)pyridine-3-carboxamide], for which the IC50 is 500 to 1000 nM.
With `O=C(Nc1ccc[n+]([O-])c1)c1cnc(C(F)(F)F)cc1Oc1ccc(OC(F)(F)F)cc1` [Example 87, N-(1-oxidopyridin-1-ium-3-yl)-4-[4-(trifluoromethoxy)phenoxy]-6-(trifluoromethyl)pyridine-3-carboxamide], the IC50 was below 500 nM.
`COc1ccc(Oc2cc(C(F)(F)F)ncc2C(=O)Nc2ccc[n+]([O-])c2)c(OC)c1` [Example 88, 4-(2,4-dimethoxyphenoxy)-N-(1-oxidopyridin-1-ium-3-yl)-6-(trifluoromethyl)pyridine-3-carboxamide]: the IC50 is below 500 nM.
Turning to `O=C(Nc1ccc[n+]([O-])c1)c1cnc(C(F)(F)F)cc1Oc1ccc(F)cc1F` [Example 89, 4-(2,4-difluorophenoxy)-N-(1-oxidopyridin-1-ium-3-yl)-6-(trifluoromethyl)pyridine-3-carboxamide], the IC50 is above 1000 nM.
Turning to `CS(=N)(=O)c1cccc(NC(=O)c2cnc(C(F)(F)F)cc2Oc2ccc(OC(F)(F)F)cc2)c1` (stereo not shown) [Example 91, N-[3-(methylsulfonimidoyl)phenyl]-4-[4-(trifluoromethoxy)phenoxy]-6-(trifluoromethyl)pyridine-3-carboxamide], the IC50 is below 500 nM.
With `CN=S(C)(=O)c1cccc(NC(=O)c2cnc(C(F)(F)F)cc2Oc2ccc(OC(F)(F)F)cc2)c1` (stereo not shown) [Example 92, N-[3-(N,S-dimethylsulfonimidoyl)phenyl]-4-[4-(trifluoromethoxy)phenoxy]-6-(trifluoromethyl)pyridine-3-carboxamide], the IC50 was below 500 nM.
In the case of `Cc1cc(F)ccc1Oc1cc(C(F)(F)F)ncc1C(=O)Nc1cccc(S(C)(=N)=O)c1` (stereo not shown) [Example 93, 4-(4-fluoro-2-methyl-phenoxy)-N-[3-(methylsulfonimidoyl)phenyl]-6-(trifluoromethyl)pyridine-3-carboxamide], the IC50 was above 1000 nM.
On to `CN=S(C)(=O)c1cccc(NC(=O)c2cnc(C(F)(F)F)cc2Oc2ccc(F)cc2C)c1` (stereo not shown) [Example 94, N-[3-(N,S-dimethylsulfonimidoyl)phenyl]-4-(4-fluoro-2-methyl-phenoxy)-6-(trifluoromethyl)pyridine-3-carboxamide], for which the IC50 was below 500 nM.
Turning to `Cc1cc(F)ccc1Oc1cc(C(F)(F)F)ncc1C(=O)Nc1ccnnc1` [Example 95, 4-(4-fluoro-2-methyl-phenoxy)-N-pyridazin-4-yl-6-(trifluoromethyl)pyridine-3-carboxamide], the 50% inhibitory concentration (IC50) is below 500 nM.
Next, `O=C(Nc1ccnnc1)c1cnc(C(F)(F)F)cc1Oc1ccc(OC(F)(F)F)cc1` [Example 96, N-pyridazin-4-yl-4-[4-(trifluoromethoxy)phenoxy]-6-(trifluoromethyl)pyridine-3-carboxamide]: 500 to 1000 nM; `O=C(Nc1ccnnc1)c1cnc(C(F)(F)F)cc1Oc1ccc(OC(F)F)cc1` [Example 97, 4-[4-(difluoromethoxy)phenoxy]-N-pyridazin-4-yl-6-(trifluoromethyl)pyridine-3-carboxamide]: above 1000 nM; `O=C(Nc1ccnnc1)c1cnc(C(F)(F)F)cc1Oc1ccc(OC(F)(F)F)cc1Cl` [Example 98, 4-[2-chloro-4-(trifluoromethoxy)phenoxy]-N-pyridazin-4-yl-6-(trifluoromethyl)pyridine-3-carboxamide]: below 500 nM.
Consider `COc1ccc(Oc2cc(C(F)(F)F)ncc2C(=O)Nc2ccnnc2)c(OC)c1` [Example 99, 4-(2,4-dimethoxyphenoxy)-N-pyridazin-4-yl-6-(trifluoromethyl)pyridine-3-carboxamide], for which the IC50 was below 500 nM.
In the case of `O=C(Nc1ccnnc1)c1cnc(C(F)(F)F)cc1Oc1ccc(F)cc1F` [Example 100, 4-(2,4-difluorophenoxy)-N-pyridazin-4-yl-6-(trifluoromethyl)pyridine-3-carboxamide], the IC50 was above 1000 nM.
For `COc1ccc(Oc2cc(C(F)(F)F)ncc2C(=O)Nc2cccc(S(C)(=N)=O)c2)c(OC)c1` (stereo not shown) [Example 102, 4-(2,4-dimethoxyphenoxy)-N-[3-(methylsulfonimidoyl)phenyl]-6-(trifluoromethyl)pyridine-3-carboxamide], the IC50 is above 1000 nM.
Take `CS(=N)(=O)c1cccc(NC(=O)c2cnc(C(F)(F)F)cc2Oc2ccc(F)cc2F)c1` (stereo not shown) [Example 103, 4-(2,4-difluorophenoxy)-N-[3-(methylsulfonimidoyl)phenyl]-6-(trifluoromethyl)pyridine-3-carboxamide]: the IC50 is above 1000 nM.
As for `COc1cc(NC(=O)c2cc(C(F)(F)F)cnc2Oc2ccc(F)cc2C)ccn1` [Example 109, 2-(4-fluoro-2-methyl-phenoxy)-N-(2-methoxy-4-pyridyl)-5-(trifluoromethyl)pyridine-3-carboxamide], the IC50 is above 1000 nM.
For the compound `Cc1cc(F)ccc1Oc1ncc(C(F)(F)F)cc1C(=O)Nc1cc[nH]c(=O)c1` [Example 110, 2-(4-fluoro-2-methyl-phenoxy)-N-(2-oxo-1H-pyridin-4-yl)-5-(trifluoromethyl)pyridine-3-carboxamide], the IC50 was above 1000 nM.
As to `COc1cc(F)ccc1Oc1ncc(Br)cc1C(=O)Nc1cccc(S(C)(=O)=O)c1` [Example 111, 5-bromo-2-(4-fluoro-2-methoxy-phenoxy)-N-(3-methylsulfonylphenyl)pyridine-3-carboxamide], the IC50 is above 1000 nM.
With `COc1cc(F)ccc1Oc1ncc(C2CC2)cc1C(=O)Nc1cccc(S(C)(=O)=O)c1` [Example 112, 5-cyclopropyl-2-(4-fluoro-2-methoxy-phenoxy)-N-(3-methylsulfonylphenyl)pyridine-3-carboxamide], the IC50 was above 1000 nM.
